In one data set the test system is SHRs. As to the kind of experiment: 21 day daily treatment of SHRs, tail cuff and direct blood pressure. The format is in vivo, spontaneously hypertensive rats.
Data set [1] deals with tissue noradrenaline and dopamine content. Nature of the data set: Tissue catecholamines in beagle dogs dosed b.i.d. for 5 days. The format is in vivo. Conditions: for maximal increase in DA/NE ratio: 5 mg/kg b.i.d.; for decrease in noradrenaline / increase in dopamine: 5 mg/kg b.i.d. po. The method, then:
Male beagle dogs (10-16 kg, Marshall Farms USA Inc, North Rose, N.Y., USA) were also used in in vivo studies. On the day of the study, dogs were weighed and randomly assigned to be orally dosed with either empty capsules (control) or the appropriate dose of nepicastat (0.05, 0.5, 1.5 or 5 mg·kg^−1; po, b.i.d.) for 5 days. At six hours following the first dose on day-5, the dogs were euthanized with pentobarbital and the tissues (cerebral cortex, renal artery, left ventricle) were rapidly harvested. The tissues were subsequently processed and analyzed for noradrenaline and dopamine.
Nepicastat was used in in vivo biochemical studies to study the effects in spontaneously hypertensive rats (SHRs) and normal beagle dogs. On the day of the study, the animals were weighed and randomly assigned to receive either placebo (vehicle) or the appropriate dose of nepicastat. Each rat was dosed orally three times, 12 h apart, beginning in the morning. At 6 h after the third dose, the rats were anesthetized with halothane, decapitated, and the tissues (cerebral cortex, mesenteric artery and left ventricle) were rapidly harvested, weighed, placed in iced 0.4 M perchloric acid, frozen in liquid nitrogen and stored at −70° C. until analysis. Tissue NE and DA concentrations were assayed by HPLC using electrochemical detection. Male beagle dogs (10-16 kg, Marshall Farms USA Inc, North Rose, N.Y.) were used in the study. On the day of the study, dogs were randomly assigned to receive either placebo (empty capsule) or the appropriate dose of nepicastat. Each dog was dosed twice a day for 4.5 days. 6 h after the first dose on day 5, the dogs were euthanized with pentobarbital and the tissues (cerebral cortex. renal artery, left ventricle) harvested, weighed, placed in iced 0.4 M perchloric acid, frozen in liquid nitrogen and stored at −70° C. until analysis. Tissue NE and DA concentrations were assayed by HPLC using electrochemical detection.

The subject of data set [2] is blood pressure responses to norepinephrine, isoproterenol and acetylcholine. Nature of the data set: Responses to autonomic agents in anesthetized, instrumented dogs. The following applies: single intraduodenal dose of 60 mg/kg. Type of data set: in vivo, beagle dogs. The protocol:
Beagle dogs were administered single intraduodenal doses of 0 (vehicle) or 60 mg/kg of nepicastat through an intraduodenal cannula. The vehicle-control group consisted of 1 male and 1 female, and the nepicastat-treatment group consisted of 2 males and 2 females. Each animal was surgically instrumented while anesthetized with isoflurane gas. Before dosing with test formulation, the average blood pressure responses to intravenous doses of autonomic agents, norepinephrine (3 μg/kg), isoproterenol (0.3 μg/kg), and acetylcholine (10 μg/kg), were evaluated. A single bolus dose of test formulation was then administered to each animal and the blood pressure responses to the autonomic agents were evaluated approximately 1, 2, and 3 hours after dosing. At the completion of the experiment, each dog was euthanatized and removed from the study. […]
Systolic, diastolic, and mean aortic blood pressures were evaluated just before administration (baseline) and at the time of peak response to each agent (maximum change from baseline). Systolic, diastolic, and mean aortic blood pressures, and blood pH, PCO2, and PO2 were evaluated before dosing and approximately 50, 110, and 170 minutes after dosing with test formulation. […]

A further data set relates to mice. As to the kind of experiment: Clinical observations and behavioral tests in mice, single oral dose. Type of data set: in vivo. The protocol:
A single oral dose of vehicle or nepicastat formulation was administered by gavage to each mouse using a rodent intubator. The oral route was selected because it is a proposed clinical route of administration. Dose volumes were calculated on the basis of individual body weights recorded before dosing (body weight data are not tabulated in this report). Food and water were withheld from the mice 2.5 to 3.5 hours before dosing, instead of 1.5 hours as specified in the protocol.
Clinical observations were recorded before dosing. Beginning 60 minutes after dosing, mice in each treatment group were evaluated in groups of up to 3 over an interval of approximately 10 minutes each for clinical observations and protocol-specified behavioral tests. One mouse in the 30-mg/kg group and 1 mouse in the 100-mg/kg group died after dosing and they were removed from the study. Surviving mice were euthanatized and removed from the study at the end of the observation/testing period.
[…] Clinical observations and behavioral tests were initiated 60 minutes after administration of the test formulation. At the end of the observation period, all surviving mice were euthanatized and removed from the study.

The next data set addresses alpha1 receptors. As to the kind of experiment: Radioligand filtration binding (Example 19). The protocol: (§1) The affinity of nepicastat was determined in the bindings assays outlined using standard radioligand filtration binding methods were used. Competition binding data were analyzed by iterative curve fitting to a four parameter logistic equation. Hill coefficients and IC50 were obtained directly. pKi (−log of Ki) of competing ligands were calculated from IC50 values using the Cheng-Prusoff equation.

The target in data set [3] is all other receptors examined. As to the kind of experiment: Radioligand filtration binding (Example 19). The method, then: as §1
The mark [4] stands for this setting: 30, 100, 300 mg/kg single oral dose.

What is called pKi is −log10 of the Ki, conventionally taken in molar units. Low values mean a high Ki, high ones a low Ki.

Consider `Cl.NCc1c[nH]c(=S)n1[C@H]1CCc2c(F)cc(F)cc2C1` [nepicastat, (S)-5-Aminomethyl-1-(5,7-difluoro-1,2,3,4-tetrahydronaphth-2-yl)-2,3-dihydro-2-thioxo-1H-imidazole hydrochloride], for which, in the data set with SHRs (10 mg/kg p.o.), the “blood pressure measured directly via arterial cannulae, restrained” value is “significant antihypertensive effect”. For the same compound, the “heart rate and systolic blood pressure by tail cuff” value in the data set with SHRs (1 and 10 mg/kg p.o., 21 days) is given as “did not alter heart rate, or systolic blood pressure”. In addition, the figures for the “maximal increase in DA/NE ratio” value in data set [1] (cerebral cortex), in data set [1] (left ventricle) and in data set [1] (renal artery) were 80 fold, 151 fold and 95 fold, respectively. Also, the decrease in noradrenaline in data set [1] (cerebral cortex) is given as 96%; in data set [1] (left ventricle), 91%; in data set [1] (renal artery), 88%. Also, the increase in dopamine is on record as 166% in data set [1] (cerebral cortex), 700% in data set [1] (left ventricle) and 627% in data set [1] (renal artery). In data set [1] (renal artery, left ventricle, cerebral cortex), the “doses at which catecholamine changes attained significance (p<0.05)” value is at least 0.1 mg/kg/day. In data set [2], the “predose vs postdose blood pressure responses to autonomic agents” value is recorded as “No treatment-related differences”. The “clinical or gross behavior changes” value with mice (setting [4]) is reported as “No treatment-related clinical or gross behavior changes”. In the data set with mice (setting [4]), the “rectal body temperature vs vehicle-control” value is “Lower body temperatures”. Also, in the data set with mice (acute 1.0-30 mg/kg p.o.), the gross motor behavior entry is “no significant effects on gross motor behavior”. Moreover, the deaths after dosing entry in the data set with mice (one mouse each at 30 and 100 mg/kg) was “the deaths were considered incidental”. The negative-log Ki (pKi) on alpha1 receptors is reported as 6.9-6.7; in data set [3] it was under 6.2.

The values above are taken from patent US10561638B2, “Methods for treating dependence” (Biotie Therapies, Inc., priority 2007, dated 2020).
